The target of experiment [1] is Aplysia californica AChBP (Aplysia californica, UniProt Q8WSF8). Put plainly: biochemical. In kind it is binding.
Experiment [2] concerns rat α9α10 nAChR. The conditions noted are these: cited from earlier work.

Here are results for three molecules from publication PMC6315749 (Marine Drugs, 2018).

By IC50 is commonly meant the point on the concentration scale where inhibition reaches its midpoint.

Aplysia californica AChBP, sequence (Q8WSF8 18-236 limits assumed): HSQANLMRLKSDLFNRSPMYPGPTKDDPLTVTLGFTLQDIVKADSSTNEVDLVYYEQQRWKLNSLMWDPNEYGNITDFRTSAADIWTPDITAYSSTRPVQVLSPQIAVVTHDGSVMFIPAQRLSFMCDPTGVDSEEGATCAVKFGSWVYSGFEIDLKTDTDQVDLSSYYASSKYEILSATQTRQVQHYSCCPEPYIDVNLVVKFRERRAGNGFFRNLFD

The molecule `N=C(N)NCCC[C@H](NC(=O)[C@@H]1CSSC[C@H](NC(=O)CN)C(=O)N[C@H]2CSSC[C@H](NC(=O)[C@H](CCCNC(=N)N)NC(=O)[C@@H]3CCCN3C(=O)[C@H](CC(=O)O)NC(=O)[C@H](CO)NC2=O)C(=O)N[C@@H](CCCNC(=N)N)C(=O)N[C@@H](Cc2ccc(O)cc2)C(=O)N[C@@H](CCCNC(=N)N)C(=O)N1)C(=O)O` [RgIA ribbon isomer] displayed a half-inhibitory concentration (IC50) in experiment [1] of 1000 ± 80 nM.
As for Vc1.1, the “affinity for rat α9α10 nAChRs” value in experiment [2] is “nanomolar”.
In turn, `N=C(N)NCCC[C@H](NC(=O)[C@@H]1CSSC[C@@H]2NC(=O)[C@@H](NC(=O)CN)CSSC[C@H](NC(=O)[C@H](CCCNC(=N)N)NC(=O)[C@@H]3CCCN3C(=O)[C@H](CC(=O)O)NC(=O)[C@H](CO)NC2=O)C(=O)N[C@@H](CCCNC(=N)N)C(=O)N[C@@H](Cc2ccc(O)cc2)C(=O)N[C@@H](CCCNC(=N)N)C(=O)N1)C(=O)O` [RgIA globular isomer] displayed an IC50 in experiment [1] of 194 ± 14 nM.
